Columns and labels:
[1] = target: T1, CSR (Homo sapiens, UniProt P41180); experiment: Cell uptake and specific blocking assays in Hcc827 cells; settings: blocker 100 μM
T1 sequence (P41180 20-1078): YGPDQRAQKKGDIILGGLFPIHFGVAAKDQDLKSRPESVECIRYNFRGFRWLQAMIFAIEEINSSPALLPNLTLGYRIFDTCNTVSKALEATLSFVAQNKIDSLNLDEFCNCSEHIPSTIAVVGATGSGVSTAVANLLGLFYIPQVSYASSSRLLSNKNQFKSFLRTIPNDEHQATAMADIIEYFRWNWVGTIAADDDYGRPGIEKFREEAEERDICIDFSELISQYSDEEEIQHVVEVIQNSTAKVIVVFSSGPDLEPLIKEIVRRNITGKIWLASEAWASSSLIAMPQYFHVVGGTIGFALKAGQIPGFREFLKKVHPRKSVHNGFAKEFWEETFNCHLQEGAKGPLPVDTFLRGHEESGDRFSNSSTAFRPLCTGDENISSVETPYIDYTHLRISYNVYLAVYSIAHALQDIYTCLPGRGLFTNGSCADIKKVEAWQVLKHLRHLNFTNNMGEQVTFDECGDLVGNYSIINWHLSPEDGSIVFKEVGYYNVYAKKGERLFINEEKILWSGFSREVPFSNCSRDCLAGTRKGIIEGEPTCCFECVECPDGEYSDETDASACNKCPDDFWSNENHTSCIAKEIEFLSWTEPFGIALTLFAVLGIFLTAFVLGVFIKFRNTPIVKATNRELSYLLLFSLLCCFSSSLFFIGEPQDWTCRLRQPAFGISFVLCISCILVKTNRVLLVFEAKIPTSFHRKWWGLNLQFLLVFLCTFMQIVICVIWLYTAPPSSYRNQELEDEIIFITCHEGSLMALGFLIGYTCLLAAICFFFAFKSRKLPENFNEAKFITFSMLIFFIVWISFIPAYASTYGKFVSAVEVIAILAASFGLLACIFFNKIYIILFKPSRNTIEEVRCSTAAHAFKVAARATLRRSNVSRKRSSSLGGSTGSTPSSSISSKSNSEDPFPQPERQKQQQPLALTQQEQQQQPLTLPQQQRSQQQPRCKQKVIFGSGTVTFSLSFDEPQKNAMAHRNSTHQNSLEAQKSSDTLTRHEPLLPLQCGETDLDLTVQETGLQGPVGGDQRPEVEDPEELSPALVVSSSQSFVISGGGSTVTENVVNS

[2] = In vivo acute toxicity study with overdose of cold standard; set-up: species or system JAX Swiss Outbred mice; settings: for ALP (alkaline phosphatase) / ALT (alanine aminotransferase) / AST (aminotransferase) / BUN (blood urea nitrogen) / creatinine: mice plasma
Procedure: In vivo Toxicity study. An In vivo acute toxicity study of [^19F]F-cinacalcet was carried out in JAX Swiss Outbred mice. The mice were injected intravenously with an overdose of cold standard [^19F]F-cinacalcet (57.6 μg, ˜1000 times greater than the radiotracer [^18F]F-cinacalcet dose). Plasma samples were collected and analyzed at various time points. […] Alkaline phosphatase (ALP) and alanine transaminase (ALT) are two important biological indicators associated with liver function. […] It is very common to see a transient increase in blood AST after drug administration, which usually has no actual pathological significance. Blood urea nitrogen (BUN) and creatinine are two critical indicators for evaluating kidney function. There were no significant changes in BUN and creatinine levels in the mice injected with [^19F]F-cinacalcet compared with the vehicle controls. In addition, histopathological staining was performed on the kidney, liver, and heart tissues collected at different time points. […] The basic structures of the glomerulus, renal tubulus, liver lobule central vein, and cardiac muscle fibers remained intact.

In the case of C[C@@H](NCCCc1cccc(C(F)(F)F)c1)c1ccc(F)c2ccccc12 [[^19F]F-ZW-cinacalcet], the “Block of [18F]F-ZW-cinacalcet uptake” value ([1]; 20 min post incubation) is reported as 89.9%, the “Block of [18F]F-ZW-cinacalcet uptake” value ([1]; other time points) is reported as “More than 87%” and the “ALP (alkaline phosphatase)” value ([2]; 2 weeks after overdose) is reported as 80.33 ± 9.00 U/L. The “ALT (alanine aminotransferase)” value ([2]; 2 weeks after overdose) was 24.67 ± 0.94 U/L, the “AST (aminotransferase)” value ([2]; 2 weeks after overdose) was 82 ± 28.6 U/L and the “BUN (blood urea nitrogen)” value ([2]; 2 weeks after overdose) was 18 ± 0.82 mg/dL. For the same molecule, the creatinine ([2]; 2 weeks after overdose) was 0.18 ± 0.01 mg/dL, the “ALP (alkaline phosphatase)” value ([2]; 1 h after overdose) was 87.67 ± 13.70 U/L and the “ALT (alanine aminotransferase)” value ([2]; 1 h after overdose) was 29.33 ± 3.10 U/L. The “AST (aminotransferase)” value ([2]; 1 h after overdose) was 82.67 ± 21.68 U/L, the “BUN (blood urea nitrogen)” value ([2]; 1 h after overdose) was 17 ± 1.41 mg/dL and the creatinine ([2]; 1 h after overdose) was 0.24 ± 0.09 mg/dL. For the same molecule, the “ALP (alkaline phosphatase)” value ([2]; 24 h after overdose) was 54 ± 9.09 U/L, the “ALT (alanine aminotransferase)” value ([2]; 24 h after overdose) was 31.33 ± 9.10 U/L and the “AST (aminotransferase)” value ([2]; 24 h after overdose) was 104.67 ± 45.38 U/L. The “BUN (blood urea nitrogen)” value ([2]; 24 h after overdose) was 18.33 ± 1.25 mg/dL, the creatinine ([2]; 24 h after overdose) was 0.25 ± 0.11 mg/dL and the Acute toxicity ([2]; mice, i.v. overdose 57.6 μg) was “no acute toxicity”. For the same molecule, the “Mortality and health changes” value ([2]; mice, i.v. overdose 57.6 μg, study period) was “No animal deaths and significant health changes were observed” and the “Histopathology of kidney, liver and heart (HE staining)” value ([2]; mice, i.v. overdose, different time points) was “no obvious pathological changes”.
